Reference: paper PMC3830479 (Journal of Experimental Botany, 2013)

Experiments:
OsG6PDH1 [1] = target: T1, OsG6PDH1 (Oryza sativa, UniProt Q0DZS9); test: inhibition of G6PDH activity; type: biochemical; settings: feedback (product) inhibition
T1 construct: gene Os02g0600400; coding region in pET32 (N-terminal fusion, His-tag), E. coli SoluBL21, HisTrap purified
T1 sequence (Q0DZS9 1-517): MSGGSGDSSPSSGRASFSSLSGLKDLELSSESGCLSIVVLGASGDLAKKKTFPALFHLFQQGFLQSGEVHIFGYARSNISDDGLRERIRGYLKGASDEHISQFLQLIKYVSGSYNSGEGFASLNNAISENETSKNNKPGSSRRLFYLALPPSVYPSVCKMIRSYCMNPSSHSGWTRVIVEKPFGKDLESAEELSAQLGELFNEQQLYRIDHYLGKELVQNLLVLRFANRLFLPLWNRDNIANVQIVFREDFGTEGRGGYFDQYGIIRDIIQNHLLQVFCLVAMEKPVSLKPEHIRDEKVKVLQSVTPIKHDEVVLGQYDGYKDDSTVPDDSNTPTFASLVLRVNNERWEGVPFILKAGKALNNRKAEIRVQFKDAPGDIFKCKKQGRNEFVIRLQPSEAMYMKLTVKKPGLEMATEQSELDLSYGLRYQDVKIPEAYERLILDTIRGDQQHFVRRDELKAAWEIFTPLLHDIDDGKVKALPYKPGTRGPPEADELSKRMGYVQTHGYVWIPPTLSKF

OsG6PDH2 [2] = target: T2, OsG6PDH2 (Oryza sativa, UniProt Q7X7I6); test: inhibition of G6PDH activity; type: biochemical; settings: feedback (product) inhibition
T2 construct: gene Os04g0485300; coding region in pET32 (N-terminal fusion, His-tag), E. coli SoluBL21, HisTrap purified
T2 sequence (Q7X7I6 1-505): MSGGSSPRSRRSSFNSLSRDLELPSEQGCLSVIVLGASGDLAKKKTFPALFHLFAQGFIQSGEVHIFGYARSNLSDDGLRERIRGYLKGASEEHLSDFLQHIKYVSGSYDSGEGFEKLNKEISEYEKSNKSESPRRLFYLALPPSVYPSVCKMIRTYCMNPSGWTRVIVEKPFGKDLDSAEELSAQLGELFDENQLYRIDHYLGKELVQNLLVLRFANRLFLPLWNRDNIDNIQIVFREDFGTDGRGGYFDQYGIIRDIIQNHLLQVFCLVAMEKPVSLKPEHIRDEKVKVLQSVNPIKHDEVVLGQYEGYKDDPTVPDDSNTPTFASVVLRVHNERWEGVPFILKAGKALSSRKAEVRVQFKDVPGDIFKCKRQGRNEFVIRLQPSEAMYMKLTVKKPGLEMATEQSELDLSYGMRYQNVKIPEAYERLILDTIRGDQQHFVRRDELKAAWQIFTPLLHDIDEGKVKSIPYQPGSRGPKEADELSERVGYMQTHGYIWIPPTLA

OsG6PDH1 [3] = target: T1, OsG6PDH1; set-up: Recombinant G6PDH spectrophotometric assay at 340 nm with G6P, NADP+ reduction, 25 °C, pH 7.6; settings: feedback inhibition, G6P/NADP+ assay; inhibitor; read-out: Ki NADPH
Procedure: (§1) The activity of recombinant rice G6PDHs was measured spectrophotometrically (340nm) at 25 °C by detecting NADP reduction via G6PDH reaction, which is coupled with G6P production, as described by [Wakao and Benning (2005)]. Reaction mixtures with 0.01–10mM G6P contained 0.2M TRIS (pH 7.6), NADP^+ (0.01–10mM), and MgCl2 (5mM). DTT (10mM) was incubated with the reaction mixture for 1h to test its activity. The DNA fragment containing the coding region of OsHXK5, OsHXK6, AlsK, OsG6PDH1, or OsG6PDH2 was subcloned in-frame into the pET32 vector (Novagen), and overexpressed in E. coli SoluBL21 (Genlantis, San Diego, CA, USA) according to the manufacturer’s instructions. The recombinant proteins were purified using a HisTrap HP column (GE Healthcare, Wauwatosa, WI, USA) as per the manufacturer’s instructions and dialysed against 0.2M TRIS-HCl buffer (pH 7.6) containing MgCl2 (5mM). Recombinant proteins of OsG6PDH1 and OsG6PDH2 had enzymatic activity with G6P and NADP^+, and OsG6PDH1 had higher activity based on k cat/K m values (Table 2). […] Neither enzyme used A6P as a substrate (Supplementary Table S3).

OsG6PDH2 [4] = target: T2, OsG6PDH2; set-up: Recombinant G6PDH spectrophotometric assay at 340 nm with G6P, NADP+ reduction, 25 °C, pH 7.6; settings: feedback inhibition, G6P/NADP+ assay; inhibitor; read-out: Ki NADPH
Procedure: as §1

For `NC(=O)C1=CN([C@@H]2O[C@H](COP(=O)(O)OP(=O)(O)OC[C@H]3O[C@@H](n4cnc5c(N)ncnc54)[C@H](OP(=O)(O)O)[C@@H]3O)[C@@H](O)[C@H]2O)C=CC1` [NADPH], the “inhibition of G6PDH activity” value (OsG6PDH1 [1]) was “OsG6PDH1 and OsG6PDH2 suffered tight feedback inhibition by NADPH”, the “inhibition of G6PDH activity” value (OsG6PDH2 [2]) was “OsG6PDH1 and OsG6PDH2 suffered tight feedback inhibition by NADPH” and the Ki (OsG6PDH1 [3]) was 41.5 µM. The Ki (OsG6PDH2 [4]) was 30 µM.
